Test results published in patent US20240116896A1 (ATAI Life Sciences AG, priority 2022, published 2024).

Columns and labels:
Format in all cases: cell-based
5-HT2A [1] = molecular target: T1, 5-HT2A (Homo sapiens, UniProt P28223); test: Calcium mobilization (Ca++ flux) assay, agonist mode, 5-HT2A; conditions: for 5-HT2A, Ca++ flux % activation @30 uM: relative to MAX serotonin control
From the text: (§1) Calcium Mobilization Assay Method (Performed by DiscoveRx Eurofins)
(§2) The Calcium No-Wash^PLUS assay monitors the activation of a GPCR via Gq secondary messenger signaling in a live cell, non-imaging assay format. Calcium mobilization in PathHunter® cell lines or other cell lines stably expressing Gq-coupled GPCRs is monitored using a calcium-sensitive dye that is loaded into cells. GPCR activation by a compound results in the release of calcium from intracellular stores and an increase in dye fluorescence that is measured in real-time.
(§3) Cell lines expressing the GPCR of interest were expanded from freezer stocks according to standard procedures. Cells were seeded in a total volume of 20 μL into black-walled, clear-bottom, Poly-D-lysine coated 384-well microplates and incubated at 37° C. for the appropriate time prior to testing.
(§4) Assays were performed in 1× Dye Loading Buffer consisting of 1× Dye, 1× Additive A and 2.5 mM Probenecid in HBSS/20 mM Hepes. Probenicid was prepared fresh. Cells were loaded with dye prior to testing. Media was aspirated from cells and replaced with 20 μL Dye Loading Buffer. Cells were incubated for 30-60 minutes at 37° C.
(§5) For agonist determination, cells were incubated with sample to induce response. After dye loading, cells were removed from the incubator and 10 μL HBSS/20 mM Hepes was added. 3× vehicle was included in the buffer when performing agonist dose curves to define the EC80 for subsequent antagonist assays. Cells were incubated for 30 minutes at room temperature in the dark to equilibrate plate temperature.
(§6) Intermediate dilution of sample stocks was performed to generate 4× sample in assay buffer. Compound agonist activity was measured on a FLIPR Tetra (MDS). Calcium mobilization was monitored for 2 minutes and 10 μL 4× sample in HBSS/20 mM Hepes was added to the cells 5 seconds into the assay.
(§7) Compound activity data was analyzed using CBIS data analysis suite (ChemInnovation, CA). For agonist mode assays, percentage activity is calculated using the following formula:
(§8) % Activity=100%×(mean RFU of test sample−mean RFU of vehicle control)/(mean MAX RFU control ligand−mean RFU of vehicle control).
(§9) In these studies, the MAX RFU was generated by using 0.1 mM serotonin for the calcium mobilization assay.

5-HT2B [2] = molecular target: T2, 5-HT2B (Homo sapiens, UniProt P41595); test: Calcium mobilization (Ca++ flux) assay, agonist mode, 5-HT2B; conditions: for 5-HT2B, Ca++ flux % activation @30 uM: relative to MAX serotonin control; for EC50: agonist mode
T2 sequence (P41595 whole entry): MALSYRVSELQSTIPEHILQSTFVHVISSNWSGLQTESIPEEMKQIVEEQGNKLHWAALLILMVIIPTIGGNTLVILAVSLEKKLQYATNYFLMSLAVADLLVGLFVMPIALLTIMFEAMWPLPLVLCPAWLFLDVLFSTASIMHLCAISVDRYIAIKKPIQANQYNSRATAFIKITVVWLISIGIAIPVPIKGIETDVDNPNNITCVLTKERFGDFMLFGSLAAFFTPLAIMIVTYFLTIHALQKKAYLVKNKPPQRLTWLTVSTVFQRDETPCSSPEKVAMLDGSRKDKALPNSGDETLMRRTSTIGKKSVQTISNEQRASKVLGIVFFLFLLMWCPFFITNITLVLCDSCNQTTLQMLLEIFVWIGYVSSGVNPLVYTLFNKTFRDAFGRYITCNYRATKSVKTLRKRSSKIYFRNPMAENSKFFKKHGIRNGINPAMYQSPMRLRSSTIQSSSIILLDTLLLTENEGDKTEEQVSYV
From the text: as §1, §2, §3, §4, §5, §6, §7, §8, §9

5-HT2A [3] = molecular target: T1, 5-HT2A; test: PathHunter b-arrestin assay, agonist mode, 5-HT2A
From the text: GPCR Arrestin Assay Methods
Arrestin Pathway (Performed by DiscoverX Eurofins)
The PathHunter® β-Arrestin assay monitors the activation of a GPCR in a homogenous, non-imaging assay format using a technology developed by DiscoverX called Enzyme Fragment Complementation (EFC) with β-galactosidase (β-Gal) as the functional reporter. […] EA is fused to β-Arrestin and PK is fused to the GPCR of interest.
When the GPCR is activated and β-Arrestin is recruited to the receptor, ED and EA complementation occurs, restoring β-Gal activity which is measured using chemiluminescent PathHunter® Detection Reagents.
PathHunter cell lines (DiscoveRx Eurofins) were expanded from freezer stocks according to standard procedures. Cells were seeded in a total volume of 20 μL into white walled, 384-well microplates and incubated at 37° C. for the appropriate time prior to testing. […]
b-Arrestin assay signal was generated through a single addition of 12.5 or 15 μL (50% v/v) of PathHunter Detection reagent cocktail, followed by a one-hour incubation at room temperature. Microplates were read following signal generation with a PerkinElmer Envision™ instrument for chemiluminescent signal detection.
Compound activity was analyzed using CBIS data analysis suite (ChemInnovation, CA). For agonist mode assays, percentage activity was calculated using the following formula: […]

5-HT2C = molecular target: T3, 5-HT2C (Homo sapiens, UniProt P28335); test: Calcium mobilization (Ca++ flux) assay, agonist mode, 5-HT2C
T3 sequence (P28335 33-458): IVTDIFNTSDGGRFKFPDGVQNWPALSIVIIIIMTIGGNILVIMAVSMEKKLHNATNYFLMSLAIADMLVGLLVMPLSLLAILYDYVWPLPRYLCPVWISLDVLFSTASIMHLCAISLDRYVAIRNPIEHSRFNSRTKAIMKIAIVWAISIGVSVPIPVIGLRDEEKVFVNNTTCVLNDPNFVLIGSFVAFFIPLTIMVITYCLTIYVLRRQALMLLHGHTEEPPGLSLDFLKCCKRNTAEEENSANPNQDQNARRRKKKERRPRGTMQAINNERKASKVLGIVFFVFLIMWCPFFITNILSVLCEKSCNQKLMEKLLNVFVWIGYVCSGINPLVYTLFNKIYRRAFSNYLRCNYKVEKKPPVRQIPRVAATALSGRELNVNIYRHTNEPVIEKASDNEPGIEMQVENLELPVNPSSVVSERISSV
From the text: as §1, §2
as §3, with “testing. […]” for “testing.”
as §6
Compound activity data was analyzed using CBIS data analysis suite (ChemInnovation, CA). For agonist mode assays, percentage activity is calculated using the following formula: […]

5-HT2B [4] = molecular target: T2, 5-HT2B; test: IPOne (IP1 HTRF) assay, CHO-K1 cells expressing human 5-HT2B; design: expressed in transfected cells; host or cells: CHO-K1; conditions: CHO-K1, percentage of reference agonist α-Me-5-HT at its EC100
Protocol: (§10) IPOne assays were performed using stably-transfected cell lines (CHO-K1) expressing human 5-HT2A or 5-HT2B receptors. Upon activation of these receptors, Gq-mediated myo-Inositol 1 phosphate (IP1) production is detected by a Homogeneous Time-Resolved Fluorescence (HTRF) competitive immunoassay, whereby an IP1 analog coupled to a fluorophore (acceptor) competes with endogenous IP1 for binding to a labeled anti-IP1 antibody (donor). The resulting signal is inversely proportional to the concentration of IP1 in the sample. Cells were incubated with an IP1 inhibitor (to prevent degradation and allow detection) and either reference compound or test compound. α-Me-5-HT was used as the assay reference agonist. Activation of 5-HT2A or 5-HT2B receptors was measured via accumulation of IP1 detected by HTRF. Agonist activity of test compounds was expressed as a percentage of the activity of the reference agonist at its EC100 concentration.

5-HT2A [5] = molecular target: T1, 5-HT2A; test: IPOne (IP1 HTRF) assay, CHO-K1 cells expressing human 5-HT2A; design: expressed in transfected cells; host or cells: CHO-K1; conditions: CHO-K1, percentage of reference agonist α-Me-5-HT at its EC100
Protocol: as §10

T1 sequence (P28223 whole entry): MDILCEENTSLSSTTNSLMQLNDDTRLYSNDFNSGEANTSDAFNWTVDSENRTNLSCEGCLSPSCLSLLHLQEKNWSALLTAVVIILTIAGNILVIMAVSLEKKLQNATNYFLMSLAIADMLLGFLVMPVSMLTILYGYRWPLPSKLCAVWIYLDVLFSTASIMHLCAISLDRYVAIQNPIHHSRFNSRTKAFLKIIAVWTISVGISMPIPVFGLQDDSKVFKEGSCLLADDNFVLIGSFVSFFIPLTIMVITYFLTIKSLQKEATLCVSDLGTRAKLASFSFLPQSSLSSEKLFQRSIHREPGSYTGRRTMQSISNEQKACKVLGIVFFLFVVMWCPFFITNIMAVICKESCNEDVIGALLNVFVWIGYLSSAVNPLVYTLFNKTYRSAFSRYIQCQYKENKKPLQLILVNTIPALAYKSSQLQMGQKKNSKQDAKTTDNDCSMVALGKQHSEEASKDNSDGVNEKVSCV

Row | SMILES | EC50 (5-HT2A [1]) | 5-HT2A, Ca++ flux % activation @30 uM (5-HT2A [1]) | 5-HT2B, Ca++ flux % activation @30 uM (5-HT2B [2]) | EC50 (5-HT2B [2]) | EC50 (5-HT2A [3]) | EC50 (5-HT2C) | activation at 0.3 µM (5-HT2B [4]) | activation at 30 µM (5-HT2B [4]) | activation at 0.3 µM (5-HT2A [5]) | activation at 30 µM (5-HT2A [5])
1 | O=C(O)C1CCCN1CCc1c[nH]c2ccccc12 (centres unmarked) [Compound 2, (2-(1H-indol-3-yl)ethyl)proline] | > 30000 nM | 2.41% | – | – | – | – | – | – | – | –
2 | COC(=O)C1CCCN1CCc1c[nH]c2ccccc12 (centres unmarked) [Compound 1, methyl (2-(1H-indol-3-yl)ethyl)prolinate] | 987 nM | 78.24% | 11.15% | > 30000 nM | 16100 nM | 4160 nM | – | – | – | –
3 | OCC1CCCN1CCc1c[nH]c2ccccc12 (centres unmarked) [Compound 3, (1-(2-(1H-indol-3-yl)ethyl)pyrrolidin-2-yl)methanol] | 103 nM | 94.73% | 23.51% | > 30000 nM | 1150 nM | 498 nM | 25.9% | 93.9% | 47.9% | 97.5%
4 | CN(CCO)CCc1c[nH]c2ccccc12 [Compound 6, 2-((2-(1H-indol-3-yl)ethyl)(methyl)amino)ethan-1-ol] | 101 nM | 42.83% | – | – | – | – | – | – | – | –
5 | COC(=O)CN(C)CCc1c[nH]c2ccccc12 [Compound 4, methyl N-(2-(1H-indol-3-yl)ethyl)-N-methylglycinate] | 302 nM | 36.92% | – | – | – | – | – | – | – | –
6 | CN(CCc1c[nH]c2ccccc12)CC(=O)O [Compound 5, N-(2-(1H-indol-3-yl)ethyl)-N-methylglycine] | > 30000 nM | 24.51% | – | – | – | – | – | – | – | –
7 | OC1CCN(CCc2c[nH]c3ccccc23)C1 (centres unmarked) [Compound 7, 1-(2-(1H-indol-3-yl)ethyl)pyrrolidin-3-ol] | – | – | – | – | – | – | 5.71% | 28.7% | 7.01% | 42%
8 | C[C@@]1(CO)CCCN1CCc1c[nH]c2ccccc12 [Compound 93, (S)-(1-(2-(1H-indol-3-yl)ethyl)-2-methylpyrrolidin-2-yl)methanol] | – | – | – | – | – | – | -0.54% | 25.6% | -11.3% | 1.82%
